Data taken from PubChem BioAssay AID330 (DTP/NCI, 2004).
Values joined by “and” are separate entries in the source; they are usually repeats but may differ in a detail not shown here. Identical values can stand only once. Inconclusive results and toxic doses are left out.

Tested on: P388 leukemia ip, CD2F1 mice, survival T/C
Assay: NCI In Vivo Anticancer Drug Screen. Data for tumor model P388 Leukemia (intraperitoneal) in CD2F1 (CDF1) mice
Conditions: endpoint: median survival time, higher = longer survival
Summary of the method: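 Mice carrying the transplanted tumor received test compound or vehicle. Survival was recorded in each group, and the value is the treated-group measurement divided by that of the vehicle-treated control group.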

[1] = dose: 60.0 mg/kg/injection, schedule: Q01DX005 (ip), vehicle: saline with Tween-80
[2] = dose: 120.0 mg/kg/injection, schedule: Q01DX005 (ip), vehicle: saline with Tween-80
[3] = dose: 50.0 mg/kg/injection, schedule: Q01DX005 (ip), vehicle: Klucel (hydroxypropylcellulose) (HPC)
[4] = dose: 50.0 mg/kg/injection, schedule: Q01DX009 (ip), vehicle: Klucel (hydroxypropylcellulose) (HPC)
[5] = dose: 100.0 mg/kg/injection, schedule: Q01DX009 (ip), vehicle: Klucel (hydroxypropylcellulose) (HPC)
[6] = dose: 200.0 mg/kg/injection, schedule: Q01DX009 (ip), vehicle: Klucel (hydroxypropylcellulose) (HPC)
[7] = dose: 50.0 mg/kg/injection, schedule: Q01DX009 (ip), vehicle: saline
[8] = dose: 100.0 mg/kg/injection, schedule: Q01DX009 (ip), vehicle: saline

CCCCCCCCCCCCC1OCN2CCCCC12 (stereo unspecified)
T/C (dose: 50.0 mg/kg/injection, schedule: Q01DX005 (ip), vehicle: saline): 106 % of control
T/C (dose: 100.0 mg/kg/injection, schedule: Q01DX005 (ip), vehicle: saline): 100 % of control
T/C (dose: 200.0 mg/kg/injection, schedule: Q01DX005 (ip), vehicle: saline): 113 % of control

O=C1CS(=O)(=O)CN1N1CS(=O)(=O)CC1=O
T/C (dose: 50.0 mg/kg/injection, schedule: Q01DX005 (ip), vehicle: saline with Tween-80): 102 % of control
T/C (dose: 100.0 mg/kg/injection, schedule: Q01DX005 (ip), vehicle: saline with Tween-80): 98 % of control
T/C (dose: 200.0 mg/kg/injection, schedule: Q01DX005 (ip), vehicle: saline with Tween-80): 98 % of control

Cc1cc(O)cc(O)c1C(=O)OC1C[C@@]2(C)C1=C(CO)C[C@@H]1CC(C)(C)C[C@@H]12 (stereo partly specified)
T/C (dose: 1.25 mg/kg/injection, schedule: Q01DX005 (ip), vehicle: Klucel (hydroxypropylcellulose) (HPC)): 96 % of control
T/C (dose: 2.5 mg/kg/injection, schedule: Q01DX005 (ip), vehicle: Klucel (hydroxypropylcellulose) (HPC)): 99 % of control
T/C (dose: 5.0 mg/kg/injection, schedule: Q01DX005 (ip), vehicle: Klucel (hydroxypropylcellulose) (HPC)): 96 % of control
T/C (dose: 10.0 mg/kg/injection, schedule: Q01DX005 (ip), vehicle: Klucel (hydroxypropylcellulose) (HPC)): 96 % of control
T/C (dose: 20.0 mg/kg/injection, schedule: Q01DX005 (ip), vehicle: Klucel (hydroxypropylcellulose) (HPC)): 100 % of control
T/C (dose: 40.0 mg/kg/injection, schedule: Q01DX005 (ip), vehicle: Klucel (hydroxypropylcellulose) (HPC)): 106 % of control
T/C (dose: 80.0 mg/kg/injection, schedule: Q01DX005 (ip), vehicle: Klucel (hydroxypropylcellulose) (HPC)): 112 % of control
T/C (dose: 160.0 mg/kg/injection, schedule: Q01DX005 (ip), vehicle: Klucel (hydroxypropylcellulose) (HPC)): 104 % of control

Cc1cc(C)n(-c2ccc(N(CCO)CCO)nn2)n1
T/C (dose: 75.0 mg/kg/injection, schedule: Q01DX005 (ip), vehicle: other): 93 % of control
T/C (dose: 150.0 mg/kg/injection, schedule: Q01DX005 (ip), vehicle: other): 88 % of control
T/C (dose: 250.0 mg/kg/injection, schedule: Q01DX005 (oral), vehicle: water): 103 % of control
T/C (dose: 300.0 mg/kg/injection, schedule: Q01DX005 (ip), vehicle: other): 93 % of control
T/C (dose: 500.0 mg/kg/injection, schedule: Q01DX005 (oral), vehicle: water): 116 % of control
T/C (dose: 1000.0 mg/kg/injection, schedule: Q01DX005 (oral), vehicle: water): 99 % of control

NC(=O)c1cccn1Cc1ccccc1SSc1ccccc1Cn1cccc1C(N)=O
T/C [1]: 91 % of control
T/C [2]: 87 % of control

CC(=O)c1cc2c(cc1Br)OCO2
T/C (dose: 100.0 mg/kg/injection, schedule: Q01DX001 (ip), vehicle: Klucel (hydroxypropylcellulose) (HPC)): 100 % of control
T/C (dose: 200.0 mg/kg/injection, schedule: Q01DX001 (ip), vehicle: Klucel (hydroxypropylcellulose) (HPC)): 102 % of control
T/C (dose: 400.0 mg/kg/injection, schedule: Q01DX001 (ip), vehicle: Klucel (hydroxypropylcellulose) (HPC)): 108 % of control

COC(=O)c1nc(=S)[nH]c(C(=O)OC)c1C(=O)c1ccc(N2CCN(c3ccc(C(=O)c4c(C(=O)OC)nc(=S)[nH]c4C(=O)OC)cc3)CC2)cc1
T/C (dose: 60.0 mg/kg/injection, schedule: Q01DX005 (ip), vehicle: suspension in saline): 99 % of control
T/C (dose: 120.0 mg/kg/injection, schedule: Q01DX005 (ip), vehicle: suspension in saline): 97 % of control
T/C (dose: 240.0 mg/kg/injection, schedule: Q01DX005 (ip), vehicle: suspension in saline): 100 % of control

O=C1O/C(=C/c2cc(Cl)c(O)c(Cl)c2)c2ccccc21
T/C (dose: 100.0 mg/kg/injection, schedule: Q04DX002 (ip), vehicle: saline): 96 % of control
T/C (dose: 200.0 mg/kg/injection, schedule: Q04DX002 (ip), vehicle: saline): 99 % of control
T/C (dose: 400.0 mg/kg/injection, schedule: Q04DX002 (ip), vehicle: saline): 99 % of control

[Br][Sn]([Br])([CH2]CC[CH2][Sn]([Br])([Br])[c]1ccccc1)[c]1ccccc1
T/C (dose: 12.5 mg/kg/injection, schedule: Q01DX005 (ip), vehicle: Klucel (hydroxypropylcellulose) (HPC)): 101 % of control
T/C (dose: 25.0 mg/kg/injection, schedule: Q01DX005 (ip), vehicle: Klucel (hydroxypropylcellulose) (HPC)): 117 % of control
T/C [3]: 115 % of control and 117 % of control

O=C(N/N=C/c1ccccc1Cl)C(=O)Nc1cccc(C(F)(F)F)c1
T/C [3]: 95 % of control
T/C (dose: 100.0 mg/kg/injection, schedule: Q01DX005 (ip), vehicle: Klucel (hydroxypropylcellulose) (HPC)): 96 % of control
T/C (dose: 200.0 mg/kg/injection, schedule: Q01DX005 (ip), vehicle: Klucel (hydroxypropylcellulose) (HPC)): 99 % of control

O=C1CN2C=CC=CC2=NN1
T/C (dose: 60.0 mg/kg/injection, schedule: Q01DX005 (ip), vehicle: saline): 100 % of control
T/C (dose: 120.0 mg/kg/injection, schedule: Q01DX005 (ip), vehicle: saline): 99 % of control
T/C (dose: 240.0 mg/kg/injection, schedule: Q01DX005 (ip), vehicle: saline): 101 % of control

CS(=O)(=O)c1ccc(C[N+]23CN4CN(CN(C4)C2)C3)cc1
T/C (dose: 60.0 mg/kg/injection, schedule: Q01DX005 (ip), vehicle: Klucel (hydroxypropylcellulose) (HPC)): 98 % of control
T/C (dose: 120.0 mg/kg/injection, schedule: Q01DX005 (ip), vehicle: Klucel (hydroxypropylcellulose) (HPC)): 99 % of control
T/C (dose: 240.0 mg/kg/injection, schedule: Q01DX005 (ip), vehicle: Klucel (hydroxypropylcellulose) (HPC)): 98 % of control

CCCCN1C(=O)C2C3C=CC(C2C1=O)C1C2C(=O)N(CCCC)C(=O)C2C31 (stereo unspecified)
T/C (dose: 100.0 mg/kg/injection, schedule: Q01DX001 (ip), vehicle: saline with Tween-80): 93 % of control
T/C (dose: 200.0 mg/kg/injection, schedule: Q01DX001 (ip), vehicle: saline with Tween-80): 93 % of control
T/C (dose: 400.0 mg/kg/injection, schedule: Q01DX001 (ip), vehicle: saline with Tween-80): 90 % of control

CCc1cccc2c(NCCCCNc3c4ccccc4nc4c(CC)cccc34)c3ccccc3nc12
T/C (dose: 0.62 mg/kg/injection, schedule: Q## X009 (ip), vehicle: lactic acid): 93 % of control
T/C (dose: 1.25 mg/kg/injection, schedule: Q## X009 (ip), vehicle: lactic acid): 100 % of control
T/C (dose: 2.5 mg/kg/injection, schedule: Q## X009 (ip), vehicle: lactic acid): 99 % of control
T/C (dose: 5.0 mg/kg/injection, schedule: Q## X009 (ip), vehicle: lactic acid): 91 % of control

O=C(Nc1nccs1)Nc1ccccc1C(F)(F)F
T/C (dose: 25.0 mg/kg/injection, schedule: Q01DX009 (ip), vehicle: Klucel (hydroxypropylcellulose) (HPC)): 115 % of control
T/C [4]: 108 % of control
T/C [5]: 106 % of control
T/C (dose: 100.0 mg/kg/injection, schedule: Q01DX009 (ip), vehicle: saline with Tween-80): 92 % of control
T/C [6]: 111 % of control
T/C (dose: 200.0 mg/kg/injection, schedule: Q01DX009 (ip), vehicle: saline with Tween-80): 90 % of control
T/C (dose: 400.0 mg/kg/injection, schedule: Q01DX009 (ip), vehicle: saline with Tween-80): 88 % of control

C=C(CN1CCOCC1)C(=O)c1ccccc1
T/C (dose: 1.89 mg/kg/injection, schedule: Q01DX005 (ip), vehicle: saline): 105 % of control
T/C (dose: 3.75 mg/kg/injection, schedule: Q01DX005 (ip), vehicle: saline): 112 % of control
T/C (dose: 7.5 mg/kg/injection, schedule: Q01DX005 (ip), vehicle: saline): 100 % of control and 105 % of control

CC(=O)Nc1ccc(/C=C2\C(=O)Nc3ccccc32)cc1
T/C [4]: 99 % of control and 91 % of control
T/C [5]: 87 % of control and 96 % of control
T/C [6]: 89 % of control and 91 % of control

CNC(=O)Oc1ccc(OC2OC(CO)C(O)C(O)C2O)c2ccccc12 (stereo unspecified)
T/C (dose: 100.0 mg/kg/injection, schedule: Q01DX001 (ip), vehicle: saline): 101 % of control
T/C (dose: 200.0 mg/kg/injection, schedule: Q01DX001 (ip), vehicle: saline): 104 % of control
T/C (dose: 400.0 mg/kg/injection, schedule: Q01DX001 (ip), vehicle: saline): 103 % of control

CS(=O)(=O)OCCOS(C)(=O)=O
T/C [7]: 111 % of control
T/C [5]: 92 % of control
T/C [8]: 123 % of control
T/C (dose: 400.0 mg/kg/injection, schedule: Q01DX009 (ip), vehicle: saline): 163 % of control

COCC(O)C(NC(=O)CCl)C(=O)O (stereo unspecified)
T/C [7]: 110 % of control and 97 % of control
T/C [8]: 90 % of control and 98 % of control
T/C (dose: 200.0 mg/kg/injection, schedule: Q01DX009 (ip), vehicle: saline): 95 % of control

c1ccc(Cc2[nH]nc(-c3n[nH]c(Cc4ccccc4)c3-c3ccccc3)c2-c2ccccc2)cc1
T/C [1]: 101 % of control
T/C [2]: 103 % of control
T/C (dose: 240.0 mg/kg/injection, schedule: Q01DX005 (ip), vehicle: saline with Tween-80): 102 % of control
